Usually TGI stands for the concentration giving total growth inhibition. The low end stands for more potent growth arrest, the high end for less potent growth arrest.

Structures are written as SMILES.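 48-hour exposure; five concentrations; linearly interpolated endpoints. TGI: total growth inhibition.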 Bounds are passed on as bounds.

Among the test systems are A498 renal; A549 NSCLC; ACHN renal; BT-549 breast; CCRF-CEM leukemia; DU-145 prostate; EKVX NSCLC; HCC-2998 colon; IGROV1 ovarian; MDA-MB-435; NCI-H23 lung; NCI/ADR-RES ovarian; OVCAR-4 ovarian; OVCAR-5 ovarian; PC-3 prostate; SF-295 CNS; SF-539 CNS; SK-MEL-28 melanoma; SW-620 colon; UACC-257 melanoma.
Common to all, as to assay: DTP human tumour cell line panel, 48 h

Take `CC(C)[Si]1(C(C)C)OCC2OC(n3c(C(=O)c4ccccc4)cc(=O)[nH]c3=O)CC2O[Si](C(C)C)(C(C)C)O1` (stereo not given): the concentration for total growth inhibition (TGI) was found to be 24.8 µM in the assay on A498 renal; 20.5 µM with A549 NSCLC; 8.58 µM in the assay on ACHN renal; 16.5 µM with BT-549 breast; 5.12 µM in the assay with CCRF-CEM leukemia; 24.6 µM in the assay on DU-145 prostate. Moreover, the TGI with EKVX NSCLC worked out at 14.6 µM; in the assay on HCC-2998 colon, 3.41 µM; in the assay on IGROV1 ovarian, 10.1 µM; in the assay with MDA-MB-435 it was 10.4 µM; in the assay with NCI-H23 lung, 6.13 µM; with NCI/ADR-RES ovarian, 26.8 µM. The TGI is 8.36 µM with OVCAR-4 ovarian; 10.1 µM in the assay with OVCAR-5 ovarian; 6.22 µM in the assay on PC-3 prostate; 13.8 µM in the assay with SF-295 CNS; 8.6 µM in the assay on SF-539 CNS; 15 µM with SK-MEL-28 melanoma. Besides, the TGI in the assay on SW-620 colon was found to be 8.32 µM; in the assay on UACC-257 melanoma, 6.04 µM.
Turning to `OC(Cc1ccc2ccccc2n1)(C(F)(F)Cl)C(F)(F)Cl`, the concentration for total growth inhibition (TGI) in the assay with A498 renal, in the assay on A549 NSCLC, in the assay with ACHN renal, in the assay on BT-549 breast, with CCRF-CEM leukemia and in the assay with DU-145 prostate was above 10 µM in each case. In addition, the TGI with EKVX NSCLC, in the assay with HCC-2998 colon, with IGROV1 ovarian, with MDA-MB-435, in the assay on NCI-H23 lung and in the assay on NCI/ADR-RES ovarian was above 10 µM throughout. Besides, the TGI in the assay on OVCAR-4 ovarian, in the assay on OVCAR-5 ovarian, in the assay on PC-3 prostate, in the assay with SF-295 CNS, with SF-539 CNS and in the assay with SK-MEL-28 melanoma was above 10 µM throughout. For the same compound, the TGI in the assay on SW-620 colon and with UACC-257 melanoma was above 10 µM in each case.
`COc1ccc(NC(=O)CC(=O)NNC(Sc2ccccc2)c2cc(N=Nc3ccc(Br)cc3)ccc2O)cc1` (stereo not given): the total growth inhibition concentration (TGI) in the assay on A498 renal, with A549 NSCLC, with ACHN renal, with BT-549 breast, in the assay on CCRF-CEM leukemia and with DU-145 prostate was above 10 µM throughout. For the same compound, the total growth inhibition concentration (TGI) with EKVX NSCLC, with HCC-2998 colon, in the assay on IGROV1 ovarian, in the assay on MDA-MB-435, with NCI-H23 lung and in the assay with NCI/ADR-RES ovarian was above 10 µM in each case. Moreover, the TGI with OVCAR-4 ovarian, with OVCAR-5 ovarian, in the assay on PC-3 prostate, in the assay with SF-295 CNS, with SF-539 CNS and with SK-MEL-28 melanoma was above 10 µM each time. The TGI with SW-620 colon and with UACC-257 melanoma was above 10 µM in each case.
Take `COC1CC(C)([N+](=O)[O-])C(O)C(C)O1` (stereo not given): the total growth inhibition concentration (TGI) with A498 renal, in the assay on A549 NSCLC, with ACHN renal, with BT-549 breast, in the assay on CCRF-CEM leukemia and in the assay on DU-145 prostate was above 100 µM each time. The TGI with EKVX NSCLC, in the assay on HCC-2998 colon, with IGROV1 ovarian, with MDA-MB-435, in the assay on NCI-H23 lung and with NCI/ADR-RES ovarian was above 100 µM each time. For the same compound, the TGI in the assay with OVCAR-4 ovarian, in the assay on OVCAR-5 ovarian, in the assay on PC-3 prostate, in the assay on SF-295 CNS, with SF-539 CNS and in the assay with SK-MEL-28 melanoma was above 100 µM throughout. The TGI in the assay with SW-620 colon and in the assay with UACC-257 melanoma was above 100 µM throughout.
In the case of `CCN(CC)c1ccc2cc(C(=O)NCc3ccccc3)c(=N)oc2c1`, the TGI with A498 renal, in the assay on A549 NSCLC, with ACHN renal, in the assay on BT-549 breast, with CCRF-CEM leukemia and with DU-145 prostate was above 100 µM each time. Further, the TGI is above 100 µM in the assay with EKVX NSCLC; above 100 µM in the assay on HCC-2998 colon; above 100 µM with IGROV1 ovarian; above 100 µM with MDA-MB-435; 97 µM with NCI-H23 lung; above 100 µM with NCI/ADR-RES ovarian. Moreover, the TGI in the assay with OVCAR-4 ovarian, in the assay on OVCAR-5 ovarian, in the assay on PC-3 prostate, in the assay with SF-295 CNS, in the assay on SF-539 CNS and in the assay with SK-MEL-28 melanoma was above 100 µM throughout. The TGI in the assay on SW-620 colon and in the assay with UACC-257 melanoma was above 100 µM throughout.
Turning to `CCO/C(O)=C(/C(=N)N1CCCC1)C(=O)Nc1cccc(Cl)c1`, the TGI in the assay on A498 renal, in the assay with A549 NSCLC, in the assay with ACHN renal, in the assay on BT-549 breast, with CCRF-CEM leukemia and in the assay with DU-145 prostate was above 100 µM in each case. The total growth inhibition concentration (TGI) in the assay with EKVX NSCLC, with HCC-2998 colon, in the assay on IGROV1 ovarian, in the assay on MDA-MB-435, in the assay on NCI-H23 lung and with NCI/ADR-RES ovarian was above 100 µM in each case. Besides, the TGI in the assay with OVCAR-4 ovarian, in the assay with OVCAR-5 ovarian, in the assay with PC-3 prostate, in the assay on SF-295 CNS, with SF-539 CNS and in the assay with SK-MEL-28 melanoma was above 100 µM in each case. For the same compound, the concentration for total growth inhibition (TGI) with SW-620 colon and with UACC-257 melanoma was above 100 µM in each case.
For the compound `CCN(CC)C(=S)SC1C(=O)NC(=O)NC1=O`, the TGI is 6.06 µM with A498 renal; above 100 µM in the assay with A549 NSCLC; above 100 µM in the assay with ACHN renal; above 100 µM in the assay with BT-549 breast; above 100 µM in the assay with CCRF-CEM leukemia; above 100 µM with DU-145 prostate. The TGI in the assay with EKVX NSCLC, with HCC-2998 colon, in the assay with IGROV1 ovarian, in the assay with MDA-MB-435, with NCI-H23 lung and with NCI/ADR-RES ovarian was above 100 µM throughout. The TGI in the assay on OVCAR-4 ovarian, in the assay with OVCAR-5 ovarian, in the assay with PC-3 prostate, in the assay with SF-295 CNS, in the assay on SF-539 CNS and in the assay with SK-MEL-28 melanoma was above 100 µM throughout. Besides, the TGI in the assay with SW-620 colon and in the assay on UACC-257 melanoma was above 100 µM in each case.
